Several values for one entry are separate records, joined by “and”; a condition that tells them apart may be missing. Equal values may be shown once. Read-outs that look alike come from different tables or passages of the source.
Biological target: G6PD (Homo sapiens, UniProt P11413)
Assay: G6PD enzymatic activity by diaphorase-coupled assay
[1] = Normalized in vitro IC50, Table 1, diaphorase-coupled biochemical assay, normalization to an intraplate control

Chain of G6PD (P11413 28-515): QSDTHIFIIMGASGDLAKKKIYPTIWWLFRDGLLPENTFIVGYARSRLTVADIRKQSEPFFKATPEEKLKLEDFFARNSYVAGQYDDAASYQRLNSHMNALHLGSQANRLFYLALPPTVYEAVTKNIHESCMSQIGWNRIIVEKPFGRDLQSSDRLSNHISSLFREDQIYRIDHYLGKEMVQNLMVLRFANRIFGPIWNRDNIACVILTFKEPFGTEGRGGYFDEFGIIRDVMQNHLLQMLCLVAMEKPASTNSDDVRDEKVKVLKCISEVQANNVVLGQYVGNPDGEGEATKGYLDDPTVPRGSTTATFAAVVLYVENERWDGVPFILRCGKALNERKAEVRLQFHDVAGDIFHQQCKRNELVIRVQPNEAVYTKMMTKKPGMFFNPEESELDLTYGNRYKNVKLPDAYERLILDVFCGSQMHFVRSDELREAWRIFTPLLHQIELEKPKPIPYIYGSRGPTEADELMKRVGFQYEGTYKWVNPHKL

| Compound | IC50 [µM] | IC50 [1] |
| --- | --- | --- |
| N#Cc1cc(Nc2ncc3c(n2)CCCCC3=O)cc(OCC23C[C@H]4C[C@@H](C2)C[C@@H](C3)C4)c1 [Compound 0105] | > 1000 |  |
| CC(C)(C)COc1cc(C#N)cc(Nc2ncc3c(n2)CCCCC3=O)c1 [Compound 0106] | > 1000 |  |
| N#Cc1cc(Nc2ncc3c(n2)CCCCC3=O)cc(OCc2cccnc2)c1 [Compound 0118] | < 1 |  |
| N#Cc1cc(Nc2ncc3c(n2)CCCCC3=O)cc(OCc2ccccn2)c1 [Compound 0121] | < 1 |  |
| COc1ccccc1COc1cc(C#N)cc(Nc2ncc3c(n2)CCCCC3=O)c1 [Compound 0122] | < 1 |  |
| N#Cc1cc(Nc2ncc3c(n2)CCCCC3=O)cc(OCc2cnoc2)c1 [Compound 0123] | < 1 |  |
| N#Cc1cc(Nc2ncc3c(n2)CCCCC3=O)cc(OCC2CCOCC2)c1 [Compound 0124] | < 1 |  |
| COCCOc1cc(C#N)cc(Nc2ncc3c(n2)CCCCC3=O)c1 [Compound 0125] | < 1 |  |
| N#Cc1cc(Nc2ncc3c(n2)CCCCC3=O)cc(OCCN)c1 [Compound 0128] | 1 to 1000 |  |
| N#Cc1cc(Nc2ncc3c(n2)CCCNC3=O)cs1 [Compound 0135] | 1 to 1000 |  |
| N#Cc1cc(Nc2ncc3c(n2)CCCCC3C(C#N)C#N)cs1 (centres unmarked) [Compound 0136] | 1 to 1000 |  |
| CCCc1cc(C#N)cc(Nc2ncc3c(n2)CCCCC3=O)c1 [Compound 0161] | 1 to 1000 |  |
| CCCCc1cc(C#N)cc(Nc2ncc3c(n2)CCCCC3=O)c1 [Compound 0162] | 1 to 1000 |  |
| N#Cc1cc(CS(=O)(=O)C(F)(F)F)cc(Nc2ncc3c(n2)CCCCC3=O)c1 [Compound 0163] | 1 to 1000 |  |
| Cc1cccc(Nc2ncc3c(n2)CCCC3=O)c1 [KG-0051-0] |  | 1 to 1000 µM |
| Cc1cccc(Nc2ccc3c(n2)CCCC3=O)c1 [KG-0052] | > 1000 |  |
| Cc1cccc(Nc2ccc3c(c2)CCCC3=O)c1 [KG-0054] | > 1000 |  |
| Cc1cccc(Nc2ncc3c(n2)CCNC3=O)c1 [KG-0055-0] | 1 to 1000 |  |
| Cc1ccccc1Nc1ncc2c(n1)CCCC2=O [KG-0056-0A] |  | 1 to 1000 µM |
| Cc1cccc(Nc2ccc3c(c2)CCNC3=O)c1 [KG-0057] | > 1000 |  |
| Cc1cccc(Nc2ncc3c(n2)CCCC3=O)c1C [KG-0060-0] |  | > 1000 µM |
| O=C1CCCc2nc(Nc3cccc(F)c3)ncc21 [KG-0061-0] |  | < 1 µM |
| N#Cc1cccc(Nc2ncc3c(n2)CCCC3=O)c1 [KG-0062-0] |  | < 1 µM |
| O=C1CCCc2nc(Nc3cccc(C(F)(F)F)c3)ncc21 [KG-0063-0] |  | 1 to 1000 µM |

| Compound | IC50 [µM] | IC50 [1] |
| --- | --- | --- |
| COC(=O)c1cccc(Nc2ncc3c(n2)CCCC3=O)c1 [KG-0064-0] |  | 1 to 1000 µM |
| O=C1CCCc2nc(Nc3cccc(Cl)c3)ncc21 [KG-0065-0] |  | < 1 µM |
| Cc1cccc(Nc2ncc3c(n2)CCC3=O)c1 [KG-0138-0] |  | 1 to 1000 µM |
| Cc1cccc(Oc2ncc3c(n2)CCCC3=O)c1 [KG-0141-0] | > 1000 |  |
| O=C1CCCc2nc(NCc3cccnc3)ncc21 [KG-0162-0] | 1 to 1000 |  |
| O=C1CCCc2nc(NCc3ccncc3)ncc21 [KG-0163-0] | 1 to 1000 |  |
| O=C1CCCc2nc(NCc3ccccc3)ncc21 [KG-0164-0] |  | 1 to 1000 µM |
| CC(Nc1ncc2c(n1)CCCC2=O)c1ccccc1 (centres unmarked) [KG-0165-0] |  | 1 to 1000 µM and > 1000 µM |
| O=C1CCCc2nc(Nc3ccc4cc[nH]c4c3)ncc21 [KG-0166-0] |  | 1 to 1000 µM |
| O=C1CCCc2nc(Nc3cccc(Br)c3)ncc21 [KG-0167-0A] |  | 1 to 1000 µM |
| O=C1CCCc2nc(Nc3cccc(Br)c3)ncc21 [KG-0167] |  | 1 to 1000 µM |
| O=C1CCCc2nc(Nc3ccc4[nH]ccc4c3)ncc21 [KG-0168-0] |  | 1 to 1000 µM |
| CN(c1cccc(C#N)c1)c1ncc2c(n1)CCCC2=O [KG-0176] |  | > 1000 µM |
| C#Cc1cccc(Nc2ncc3c(n2)CCCC3=O)c1 [KG-0183-0] |  | 1 to 1000 µM |
| N#Cc1cccc(Nc2ncc3c(n2)CCCCC3=O)c1 [KG-0184-0A] |  | < 1 µM |
| COc1cccc(Nc2ncc3c(n2)CCCC3=O)c1 [KG-0185-0] |  | 1 to 1000 µM |
| O=C1CCCc2nc(Nc3cccc(O)c3)ncc21 [KG-0186-0A] |  | < 1 µM |
| O=C1CCCc2nc(Nc3ccccc3)ncc21 [KG-0187-0] |  | 1 to 1000 µM |
| Cc1ccc(Nc2ncc3c(n2)CCCC3=O)cc1C [KG-0188-0] |  | 1 to 1000 µM |
| N#Cc1cccc(Nc2ncc3c(n2)COCC3=O)c1 [KG-0190-0] | 1 to 1000 |  |
| N#Cc1cncc(Nc2ncc3c(n2)CCCC3=O)c1 [KG-0198-0] | 1 to 1000 |  |
| O=C1CCCc2nc(Nc3cccc(C4CC4)c3)ncc21 [KG-0203-0] |  | 1 to 1000 µM |
| CC#Cc1cccc(Nc2ncc3c(n2)CCCC3=O)c1 [KG-0204-0] |  | 1 to 1000 µM |
| CC1CCc2nc(Nc3cccc(C#N)c3)ncc2C1=O (centres unmarked) [KG-0205-0] |  | < 1 µM |

| Compound | IC50 [µM] | IC50 [1] |
| --- | --- | --- |
| N#Cc1cccc(Nc2ncc3c(n2)CCC(Br)C3=O)c1 (centres unmarked) [KG-0206-0] |  | < 1 µM |
| O=C1CCCc2nc(Nc3nc4ccccc4[nH]3)ncc21 [KG-0209-0] |  | 1 to 1000 µM |
| O=C1CCCc2nc(Nc3nc4ccccc4s3)ncc21 [KG-0211-0] |  | > 1000 µM |
| O=C1CCCc2nc(Nc3ncco3)ncc21 [KG-0213-0] | > 1000 |  |
| O=C1CCCc2nc(Nc3nccs3)ncc21 [KG-0214-0] | 1 to 1000 |  |
| O=C1CCCc2nc(Nc3ccon3)ncc21 [KG-0215-0] |  | 1 to 1000 µM |
| O=C1CCCc2nc(Nc3cc[nH]n3)ncc21 [KG-0216-0] |  | > 1000 µM |
| Cc1csc(Nc2ncc3c(n2)CCCC3=O)n1 [KG-0219-0] | 1 to 1000 |  |
| Cc1cc(Nc2ncc3c(n2)CCCC3=O)no1 [KG-0220-0] | 1 to 1000 |  |
| O=C1CCCc2nc(Nc3ccc4nc[nH]c4c3)ncc21 [KG-0223-0] |  | 1 to 1000 µM |
| O=C1CCCc2nc(Nc3ccc4ncsc4c3)ncc21 [KG-0224-0] |  | 1 to 1000 µM |
| O=C1CCCc2nc(Nc3ccc4scnc4c3)ncc21 [KG-0227-0] |  | 1 to 1000 µM |
| O=C1CCCc2nc(Nc3ccc4occc4c3)ncc21 [KG-0228-0] |  | 1 to 1000 µM |
| O=C1CCCc2nc(Nc3ccc4cn[nH]c4c3)ncc21 [KG-0229-0] |  | 1 to 1000 µM |
| O=C1CCCc2nc(Nc3ccc4[nH]ncc4c3)ncc21 [KG-0232-0] |  | < 1 µM |
| O=C(O)c1cccc(Nc2ncc3c(n2)CCCC3=O)c1 [KG-0237-0] |  | > 1000 µM |
| NC(=O)c1cccc(Nc2ncc3c(n2)CCCC3=O)c1 [KG-0238-0] |  | 1 to 1000 µM |
| CCOc1cccc(Nc2ncc3c(n2)CCCC3=O)c1 [KG-0239-0] |  | 1 to 1000 µM |
| O=C1CCCc2nc(Nc3cccc(CO)c3)ncc21 [KG-0240-0] |  | 1 to 1000 µM |
| O=C1CCCc2nc(Nc3cccc(-c4nnn[nH]4)c3)ncc21 [KG-0241-0] |  | 1 to 1000 µM |
| O=C1CCCc2nc(Nc3cccc(C4(O)COC4)c3)ncc21 [KG-0242-0] |  | 1 to 1000 µM |
| N#Cc1cccc(Nc2ncc3c(n2)CCCS3(=O)=O)c1 [KG-0249-0] | 1 to 1000 |  |
| O=C1CCCc2nc(Nc3cccc(Oc4ccccc4)c3)ncc21 [KG-0251-0] |  | 1 to 1000 µM |
| O=C1CCCc2nc(Nc3cccc(OCc4ccccc4)c3)ncc21 [KG-0252-0] |  | 1 to 1000 µM |

| Compound | IC50 [µM] | IC50 [1] |
| --- | --- | --- |
| N#Cc1cc(Nc2ncc3c(n2)CCCC3=O)cs1 [KG-0254-0A] | < 1 |  |
| COc1cc(C#N)cc(Nc2ncc3c(n2)CCCC3=O)c1 [KG-0255-0] |  | < 1 µM |
| COc1cc(Cl)cc(Nc2ncc3c(n2)CCCC3=O)c1 [KG-0256-0] |  | < 1 µM |
| O=C(Nc1ncc2c(n1)CCCC2=O)c1ccccc1 [KG-0258-0] |  | > 1000 µM |
| CO/N=C1\CCCc2nc(Nc3cccc(C#N)c3)ncc21 [KG-0260-0] | > 1000 |  |
| N#Cc1cccc(Nc2ncc3c(n2)CCCC3O)c1 (centres unmarked) [KG-0261-10] | 1 to 1000 |  |
| N#Cc1cc(Cl)cc(Nc2ncc3c(n2)CCCC3=O)c1 [KG-0265-0] |  | < 1 µM |
| CCNC(=O)Nc1cccc(Nc2ncc3c(n2)CCCC3=O)c1 [KG-0283-0] |  | 1 to 1000 µM |
| N#Cc1cccc(Nc2ncc3c(n2)CCC(O)C3=O)c1 (centres unmarked) [KG-0315-0A] |  | < 1 µM |
| N#Cc1cc(Nc2ncc3c(n2)CCC(Br)C3=O)cs1 (centres unmarked) [KG-0316] | < 1 |  |
| N#Cc1cc(Nc2ncc3c(n2)CCC(O)C3=O)cs1 (centres unmarked) [KG-0317] | < 1 |  |
| N#Cc1cc(Nc2ncc3c(n2)CCC(C(F)(F)F)C3=O)cs1 (centres unmarked) [KG-0318] | < 1 |  |
| COC1CCc2nc(Nc3csc(C#N)c3)ncc2C1=O (centres unmarked) [KG-0321] | < 1 |  |
| N#Cc1cccc(Nc2ncc3c(n2)CCCC(O)C3=O)c1 (centres unmarked) [KG-0331] | 1 to 1000 |  |
| O=C1c2cnc(Nc3cccc(Cl)c3)nc2CCCC1O (centres unmarked) [KG-0332-0] | 1 to 1000 |  |
| N#Cc1cc(Nc2ncc3c(n2)CCCC(O)C3=O)cs1 (centres unmarked) [KG-0333-0] | < 1 |  |
| N#Cc1cccc(Nc2ncc3c(n2)CCCC(Br)C3=O)c1 (centres unmarked) [KG-0334] | < 1 |  |
| O=C1c2cnc(Nc3cccc(Cl)c3)nc2CCCC1Br (centres unmarked) [KG-0335-0] | < 1 |  |
| N#Cc1cc(Nc2ncc3c(n2)CCCC(Br)C3=O)cs1 (centres unmarked) [KG-0336-0] | < 1 |  |
| N#Cc1cc(Nc2ncc3c(n2)CCCCC3=O)c(C(F)(F)F)s1 [KG-0337-0A] | 1 to 1000 |  |
| N#Cc1cc(Nc2ncc3c(n2)CCCC(C(F)(F)F)C3=O)cs1 (centres unmarked) [KG-0337-0] | < 1 |  |
| N#Cc1cc(Nc2ncc3c(n2)CCCCC3=O)cs1 [KG-0338] | < 1 |  |
| O=C1CCCCc2nc(Nc3cccc(F)c3)ncc21 [KG-0339] |  | < 1 µM |
